Tests used:
MDA-MB-231 cells = test: Cancer cell viability assay; type: cell-based
[1] = tested on: UPR markers sXbp1, HSPA5A (BiP), DDIT3 (CHOP) in MDA-MB-231 cells; test: UPR / ER stress gene induction by qPCR; type: cell-based; details: MDA-MB-231, 6 h, 2 times the EC50, qPCR

Structure (SMILES) | inhibitory effect on cell growth (MDA-MB-231 cells; MDA-MB-231 viability assay, negative control) | additive or synergistic effect with JMS-053 on viability (MDA-MB-231 cells; addition of 20–60 μM 4 to MDA-MB-231 cells treated with JMS-053) | accumulation of spliced Xbp1 transcription factor [1] | expression of pro-apoptotic gene CHOP (DDIT3) [1]
O=C(CC12CC3CC(CC(C3)C1)C2)NCCCCO [Compound 4] | negligible inhibitory effects on cell growth | failed to detect any changes in viability |  | 
N=C1C(=O)NC(=O)c2cc(-c3ccc(OCCCCNC(=O)CC45CC6CC(CC(C6)C4)C5)cc3)sc21 [Compound 7a] |  |  | moderate accumulation | strongly enhanced expression
O=C(CC12CC3CC(CC(C3)C1)C2)NCCCCOc1ccc(-c2cc3c(s2)C(=O)C(=O)NC3=O)cc1 [Compound 7b] |  |  | significantly lower accumulation | 
